What was measured:
[1] = system: hemoglobin Alc antibodies (PAB IS, PAB DE, MAB); assay: Reversal of antibody inhibition with BSA-Alc polyhaptan; assay type: binding
Text: Reversal curves were then generated using a series of dilutions ofBAS-Alc-polyhaptan with a−1:1 Alc:BAS. The BAS-Alc acts as our sample and binds to the antibody.

[2] = system: hemoglobin Alc antibody MAB (monoclonal); assay: Inhibition of osmium mediator-peptide conjugate current by antibody (enzyme amplified amperometry, palladium electrodes); assay type: binding; settings: for Inhibition with Antibody, MAB: maximum inhibition
Protocol: (§1) 4. Appropriate stoichiometry of the reaction was determined for the two reactions independently by methods standard for immunoassay development. A solution containing a fixed amount of labeled conjugate was mixed with a solution with varying amounts of antibody, and, following an appropriate incubation period, the amount of free conjugate remaining was measured on the IDA electrode using the procedure described above.
(§2) Polyclonal DE (ion-exchange) purified sheep antibody is used in the TinaQuant HbAlc assay. IS (immunosorbent) antibody is prepared using standard IS purification methodology. Samples of a monoclonal antibody were also obtained for evaluation. Inhibition curves were performed in solution with all mixing occurring in microcentrifuge tubes. Inhibition curves with the three hemoglobin Alc antibodies (PAB IS, PAB DE, and MAB) were generated by fixing OS-DSG-Alc at 5μM and varying the antibody concentration. […] From the inhibition curves we were able to select reasonable concentrations of antibody for maximum reversal with Alc samples.
(§3) While these feasibility studies for a HbAlc immunoassay used an enzyme mediated amplification method (Glucdor/PQQ/glucose was used to regenerate reduced mediator after oxidation at the electrode surface providing a higher diffusion controlled current is given by the cottrell equation), they are considered to be indicative of results attainable with the use of IDA electrodes with bipotentiostatic control is most preferred for measuring mediator labeled conjugates in accordance with this invention.

[3] = Stability of mediator labels (analytical HPLC, % inhibition values over time); assay type: physicochemical; settings: for Stability in solution: stored as solution
Protocol: (§4) Samplers frozen at−20° C. appear to be stable.

[4] = system: hemoglobin Alc antibody PAB DE (polyclonal, ion-exchange purified); assay: Inhibition of osmium mediator-peptide conjugate current by antibody (enzyme amplified amperometry, palladium electrodes); assay type: binding, sheep; settings: for Inhibition with Antibody, PAB DE: maximum inhibition
Protocol: as §1, §2, §3

[5] = system: hemoglobin Alc antibody PAB IS (polyclonal, immunosorbent purified); assay: as above; assay type: binding, sheep; settings: for Inhibition with Antibody, PAB IS: maximum inhibition
Text: 3. Antibodies for the analytes (HbAlc and HbAO) which react specifically with the N-terminal peptides which have been incorporated into the conjugate are provided by standard methods for producing polyclonal antibodies. In this case, sheep were immunized with carrier proteins to which were conjugated the synthetic peptide sequences for HbAlc and HbA0. Following the appropriate immunization schedule, the sheep were bled, and the antibody isolated from the blood via ion exchange chromatography, followed by immunosorbent purification on a column of the same N-terminal peptide with a different linker.
as §1, §2, §3

HbAlc antibodies = assay: Inhibition curves of mediator labels, antibody not given; assay type: binding
Protocol: as §2, §4

HbAo antibody = assay: Reversal of antibody inhibition with AoHB-peptide #1; assay type: binding
Sheep B<HbAo> antibody = assay: Inhibition of Ao conjugate current by antibody; assay type: binding
Zymed rabbit antibodies = assay: Inhibition of Ao conjugate current by antibody; assay type: binding
glucose oxidase = glucose oxidase (Aspergillus niger, UniProt P13006); settings: with glucose oxidase; cited from earlier work
Chain of glucose oxidase (P13006 17-605, species assumed): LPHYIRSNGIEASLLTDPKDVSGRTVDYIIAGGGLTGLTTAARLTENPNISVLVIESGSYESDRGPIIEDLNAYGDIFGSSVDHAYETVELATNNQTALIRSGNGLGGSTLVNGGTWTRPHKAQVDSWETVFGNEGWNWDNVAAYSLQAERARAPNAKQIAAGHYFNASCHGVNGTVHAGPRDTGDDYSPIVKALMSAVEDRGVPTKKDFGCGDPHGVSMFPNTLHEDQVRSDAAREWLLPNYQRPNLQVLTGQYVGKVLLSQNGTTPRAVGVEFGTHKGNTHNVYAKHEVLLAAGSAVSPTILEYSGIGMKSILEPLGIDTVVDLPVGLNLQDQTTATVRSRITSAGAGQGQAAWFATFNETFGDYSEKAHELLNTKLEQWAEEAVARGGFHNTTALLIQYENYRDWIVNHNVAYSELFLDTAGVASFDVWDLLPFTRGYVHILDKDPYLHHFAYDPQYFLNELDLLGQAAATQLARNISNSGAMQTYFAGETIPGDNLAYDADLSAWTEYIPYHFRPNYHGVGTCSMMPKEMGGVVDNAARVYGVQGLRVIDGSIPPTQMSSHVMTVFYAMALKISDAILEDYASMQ

Row | Compound | Reversal with BSA-Alc polyhaptan [1] | Inhibition with Antibody, MAB [2] | Inhibition with Antibody, PAB DE [4] | Inhibition with Antibody, PAB IS [5] | Max inhibition from inhibition curve (HbAlc antibodies) | Stability in solution [3] | other results
1 | CC(C)CC(NC(=O)C(Cc1cnc[nH]1)NC(=O)C(NCC1(O)OCC(O)C(O)C1O)C(C)C)C(=O)NC(C(=O)NC(CCCCNC(=O)CCCC(=O)NCCc1c[n+]([Os]23([Cl])([n+]4ccccc4-c4cccc[n+]42)[n+]2ccccc2-c2cccc[n+]23)c[nH]1)C(=O)O)C(C)O (centres unmarked) [Os-DSG-Alc] | Yes with BSA-Alc | MAB (<78%) | PAB DE (<87%) | PAB IS (≦91%) |  |  | Antibody concentration at which maximum change of inhibition is reached, MAB ([2]; conjugate fixed at 5 μM): ~5 µM; Stability lyophilized and frozen ([3]; lyophilized form and frozen in solution at -20 C (40 and 80 uM)): stable; Amount of PAB DE antibody needed to get close to maximum inhibition, relative to PAB IS and MAB ([4]; conjugate fixed at 5 μM): more than 3 times; Antibody concentration at which maximum change of inhibition is reached, PAB IS ([5]; conjugate fixed at 5 μM): ~5 µM
2 | CC(C)CC(NC(=O)C(Cc1cnc[nH]1)NC(=O)C(NCC1(O)OCC(O)C(O)C1O)C(C)C)C(=O)NC(C(=O)NC(CCCCNC(=O)CCCCCN1C(=O)CC(SCC(=O)NCCc2c[n+]([Os]34([Cl])([n+]5ccccc5-c5cccc[n+]53)[n+]3ccccc3-c3cccc[n+]34)c[nH]2)C1=O)C(=O)O)C(C)O (centres unmarked) [Os-SATA-Alc] | Yes with BSA-Alc |  |  | PAB IS (≦44%) | 44% | Stability similar to SMCC. | 
3 | CC(C)CC(NC(=O)C(Cc1cnc[nH]1)NC(=O)C(N)C(C)C)C(=O)NC(C(=O)NC(CCCCNC(=O)CCCCCN1C(=O)CC(SCC(=O)NCCc2c[n+]([Os]34([Cl])([n+]5ccccc5-c5cccc[n+]53)[n+]3ccccc3-c3cccc[n+]34)c[nH]2)C1=O)C(=O)O)C(C)O (centres unmarked) [Os-SATA-Ao] |  |  |  |  |  | unstable in solution. Conjugate | Reversal with AoHB-peptide #1 (HbAo antibody): No with AoHB-; Inhibition with Antibody, Sheep B<HbAo> (Sheep B<HbAo> antibody): ≤ 84%; Inhibition with Antibody, Zymed rabbit antibodies (Zymed rabbit antibodies): No
4 | CC(C)CC(NC(=O)C(Cc1cnc[nH]1)NC(=O)C(NCC1(O)OCC(O)C(O)C1O)C(C)C)C(=O)NC(C(=O)NC(CSC1CC(=O)N(CC2CCC(C(=O)NCCc3c[n+]([Os]45([Cl])([n+]6ccccc6-c6cccc[n+]64)[n+]4ccccc4-c4cccc[n+]45)c[nH]3)CC2)C1=O)C(=O)O)C(C)O (centres unmarked) [Os-SMCC-Alc] | Yes with BSA-Alc | MAB (≦50%) | PAB DE (≦97%) | PAB IS (≦92%) | 97% | Degrades in solution. | 
5 | Bis(2,2′-bipyridyl) imidazolyl chloroosmium [Os mediator] |  |  |  |  |  |  | Mediation kinetics relative to ferricyanide (glucose oxidase): about 500 times faster
